tested on: PDGFR; test: Rat A10 cell proliferation assay; assay type: cell-based; conditions: Table 1; Rat A10 cells, recombinant rat PDGF-BB, CellTiter-Glo after 68 hours
In short: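 Rat A10 cells in DMEM with 1% FBS and 10 ng/mL rat PDGF-BB, preincubated 4 h at 37 °C, then exposed to 3-fold serially diluted compound for 68 h. Viability/proliferation read as CellTiter-Glo luminescence.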

Structure (SMILES) | IC50
CCC[C@@H](CO)NC(=O)c1ccc(F)c(NC(=O)c2cnc3ccccn23)c1 [F110, N-(2-fluoro-5-{[(2S)-1-hydroxypentan-2-yl]carbamoyl}phenyl)imidazo[1,2-a]pyridine-3-carboxamide] | 0.115 µM
COc1ccc2c(c1)[C@@H](NC(=O)c1ccc(F)c(NC(=O)c3cnc4ccc(C)cn34)c1)[C@@H](O)C2 [F111, N-(2-fluoro-5-{[(1R,2S)-2-hydroxy-6-methoxy-2,3-dihydro-1H-inden-1-yl]carbamoyl}phenyl)-6-methylimidazo[1,2-a]pyridine-3-carboxamide] | 0.195 µM
O=C(N[C@H](CO)c1ccccc1)c1ccc(F)c(NC(=O)c2cnc3ccccn23)c1 [F112, N-(2-fluoro-5-{[(1S)-2-hydroxy-1-phenylethyl]carbamoyl}phenyl)imidazo[1,2-a]pyridine-3-carboxamide] | 0.076 µM
O=C(N[C@@H]1c2cc(F)ccc2C[C@@H]1O)c1ccc(F)c(NC(=O)c2cnc3ccc(F)cn23)c1 [F113, 6-fluoro-N-(2-fluoro-5-{[(1R,2S)-6-fluoro-2-hydroxy-2,3-dihydro-1H-inden-1-yl]carbamoyl}phenyl)imidazo[1,2-a]pyridine-3-carboxamide] | 0.113 µM
Cc1ccc2ncc(C(=O)Nc3cc(C(=O)N[C@H]4CCCC[C@@H]4O)ccc3F)n2c1 [F114, N-(2-fluoro-5-{[(1S,2S)-2-hydroxycyclohexyl]carbamoyl}phenyl)-6-methylimidazo[1,2-a]pyridine-3-carboxamide] | 0.07 µM
Cc1ccn2c(C(=O)Nc3cc(C(=O)N[C@H]4CCCC[C@@H]4O)ccc3F)cnc2c1 [F115, N-(2-fluoro-5-{[(1S,2S)-2-hydroxycyclohexyl]carbamoyl}phenyl)-7-methylimidazo[1,2-a]pyridine-3-carboxamide] | 0.044 µM
O=C(NC[C@@H]1CCCC[C@H]1O)c1ccc(F)c(NC(=O)c2cnc3ccccn23)c1 [F116, N-[2-fluoro-5-({[(1S,2R)-2-hydroxycyclohexyl]methyl}carbamoyl)phenyl]imidazo[1,2-a]pyridine-3-carboxamide] | 0.064 µM
COC[C@H](NC(=O)c1ccc(F)c(NC(=O)c2cnc3ccccn23)c1)[C@@H](O)c1ccccc1 [F117, N-(2-fluoro-5-{[(1S,2S)-1-hydroxy-3-methoxy-1-phenylpropan-2-yl]carbamoyl}phenyl)imidazo[1,2-a]pyridine-3-carboxamide] | 0.013 µM
COC[C@H](NC(=O)c1ccc(F)c(NC(=O)c2cnc3ccccn23)c1)[C@@H](O)c1ccccc1 [F118, N-(2-fluoro-5-{[(1S,2S)-1-hydroxy-3-methoxy-1-phenylpropan-2-yl]carbamoyl}phenyl)imidazo[1,2-a]pyridine-3-carboxamide] | 0.041 µM
O=C(NCC(O)c1ccccc1Cl)c1ccc(F)c(NC(=O)c2cnc3ccccn23)c1 (stereo not drawn) [F120, N-(5-{[2-(2-chlorophenyl)-2-hydroxyethyl]carbamoyl}-2-fluorophenyl)imidazo[1,2-a]pyridine-3-carboxamide] | 0.036 µM
O=C(NC[C@@H](O)c1ccc(Cl)cc1)c1ccc(F)c(NC(=O)c2cnc3ccccn23)c1 [F121, N-(5-{[(2S)-2-(4-chlorophenyl)-2-hydroxyethyl]carbamoyl}-2-fluorophenyl)imidazo[1,2-a]pyridine-3-carboxamide] | 0.013 µM
O=C(NC[C@@H](O)c1ccccc1F)c1ccc(F)c(NC(=O)c2cnc3ccccn23)c1 [F122, N-(2-fluoro-5-{[(2S)-2-(2-fluorophenyl)-2-hydroxyethyl]carbamoyl}phenyl)imidazo[1,2-a]pyridine-3-carboxamide] | 0.06 µM
O=C(N[C@@H](CO)[C@@H](O)c1ccccc1)c1ccc(F)c(NC(=O)c2cnc3ccccn23)c1 [F123, N-(5-{[(1S,2S)-1,3-dihydroxy-1-phenylpropan-2-yl]carbamoyl}-2-fluorophenyl)imidazo[1,2-a]pyridine-3-carboxamide] | 0.044 µM
C[C@@]1(O)CCCC[C@@H]1NC(=O)c1ccc(F)c(NC(=O)c2cnc3ccccn23)c1 [F124, N-(2-fluoro-5-{[(1S,2R)-2-hydroxy-2-methylcyclohexyl]carbamoyl}phenyl)imidazo[1,2-a]pyridine-3-carboxamide] | 0.187 µM
O=C(N[C@H]1CCSC[C@H]1O)c1ccc(F)c(NC(=O)c2cnc3ccccn23)c1 [F125, N-(2-fluoro-5-{[(3S,4S)-3-hydroxythian-4-yl]carbamoyl}phenyl)imidazo[1,2-a]pyridine-3-carboxamide] | 0.098 µM
COC[C@H](NC(=O)c1ccc(F)c(NC(=O)c2cnc3cc(C)ccn23)c1)[C@@H](O)c1ccccc1 [F126, N-(2-fluoro-5-{[(1S,2S)-1-hydroxy-3-methoxy-1-phenylpropan-2-yl]carbamoyl}phenyl)-7-methylimidazo[1,2-a]pyridine-3-carboxamide] | 0.008 µM
Cc1ccn2c(C(=O)Nc3cc(C(=O)N[C@@H](CO)[C@@H](O)c4ccccc4)ccc3F)cnc2c1 [F127, N-(5-{[(1S,2S)-1,3-dihydroxy-1-phenylpropan-2-yl]carbamoyl}-2-fluorophenyl)-7-methylimidazo[1,2-a]pyridine-3-carboxamide] | 0.086 µM
Cn1nccc1-c1ccn2c(C(=O)Nc3cc(C(=O)N[C@@H](CO)[C@@H](O)c4ccccc4)ccc3F)cnc2c1 [F128, N-(5-{[(1S,2S)-1,3-dihydroxy-1-phenylpropan-2-yl]carbamoyl}-2-fluorophenyl)-7-(1-methyl-1H-pyrazol-5-yl)imidazo[1,2-a]pyridine-3-carboxamide] | 0.056 µM
COC[C@H](NC(=O)c1ccc(F)c(NC(=O)c2cnc3cc(-c4ccnn4C)ccn23)c1)[C@@H](O)c1ccccc1 [F129, N-(2-fluoro-5-{[(1S,2S)-1-hydroxy-3-methoxy-1-phenylpropan-2-yl]carbamoyl}phenyl)-7-(1-methyl-1H-pyrazol-5-yl)imidazo[1,2-a]pyridine-3-carboxamide] | 0.014 µM

same assay, conditions: Table 2; Rat A10 cells, recombinant rat PDGF-BB, CellTiter-Glo after 68 hours

Structure (SMILES) | IC50
CSCC[C@@H](CO)NC(=O)c1ccc(F)c(NC(=O)c2cnc3ccccn23)c1 [F96, N-(2-fluoro-5-{[(2S)-1-hydroxy-4-(methylsulfanyl)butan-2-yl]carbamoyl}phenyl)imidazo[1,2-a]pyridine-3-carboxamide] | 0.556 µM
O=C(NC[C@@H](O)c1cccc(O)c1)c1ccc(F)c(NC(=O)c2cnc3ccccn23)c1 [F97, N-(2-fluoro-5-{[(2S)-2-hydroxy-2-(3-hydroxyphenyl)ethyl]carbamoyl}phenyl)imidazo[1,2-a]pyridine-3-carboxamide] | 0.668 µM
CC(C)(CO)NC(=O)c1ccc(F)c(NC(=O)c2cnc3ccccn23)c1 [F98, N-{2-fluoro-5-[(1-hydroxy-2-methylpropan-2-yl)carbamoyl]phenyl}imidazo[1,2-a]pyridine-3-carboxamide] | > 10 µM
O=C(N[C@@H]1CCCC(F)(F)[C@H]1O)c1ccc(F)c(NC(=O)c2cnc3ccccn23)c1 [F99, N-(5-{[(1R,2S)-3,3-difluoro-2-hydroxycyclohexyl]carbamoyl}-2-fluorophenyl)imidazo[1,2-a]pyridine-3-carboxamide] | 0.325 µM
O=C(NCC1(O)CCNCC1)c1ccc(F)c(NC(=O)c2cnc3ccccn23)c1 [F100, N-(2-fluoro-5-{[(4-hydroxypiperidin-4-yl)methyl]carbamoyl}phenyl)imidazo[1,2-a]pyridine-3-carboxamide] | > 9.02 µM
O=C(N[C@@H](c1ccccc1)[C@H](O)CO)c1ccc(F)c(NC(=O)c2cnc3ccccn23)c1 [F101, N-(5-{[(1S,2S)-2,3-dihydroxy-1-phenylpropyl]carbamoyl}-2-fluorophenyl)imidazo[1,2-a]pyridine-3-carboxamide] | 0.429 µM
CC(C)(O)[C@H]1CCCC[C@@H]1NC(=O)c1ccc(F)c(NC(=O)c2cnc3ccccn23)c1 [F102, N-(2-fluoro-5-{[(1S,2S)-2-(2-hydroxypropan-2-yl)cyclohexyl]carbamoyl}phenyl)imidazo[1,2-a]pyridine-3-carboxamide] | 0.425 µM
C[C@@]1(O)CCCC[C@H]1NC(=O)c1ccc(F)c(NC(=O)c2cnc3ccccn23)c1 [F103, N-(2-fluoro-5-{[(1R,2R)-2-hydroxy-2-methylcyclohexyl]carbamoyl}phenyl)imidazo[1,2-a]pyridine-3-carboxamide] | > 10 µM
O=C(N[C@H]1CC[C@@H](O)CC1)c1ccc(F)c(NC(=O)c2cnc3ccccn23)c1 [F104, N-{2-fluoro-5-[(4-hydroxycyclohexyl)carbamoyl]phenyl}imidazo[1,2-a]pyridine-3-carboxamide] | > 10 µM
O=C(N[C@@H]1CCSC[C@H]1O)c1ccc(F)c(NC(=O)c2cnc3ccccn23)c1 [F105, N-(2-fluoro-5-{[(3S,4R)-3-hydroxythian-4-yl]carbamoyl}phenyl)imidazo[1,2-a]pyridine-3-carboxamide] | 0.84 µM
CC(C)(O)[C@@H]1CCCC[C@@H]1NC(=O)c1ccc(F)c(NC(=O)c2cnc3ccccn23)c1 [F106, N-(2-fluoro-5-{[(1S,2R)-2-(2-hydroxypropan-2-yl)cyclohexyl]carbamoyl}phenyl)imidazo[1,2-a]pyridine-3-carboxamide] | 0.813 µM
O=C(N[C@H](CO)[C@H](O)c1ccccc1)c1ccc(F)c(NC(=O)c2cnc3ccccn23)c1 [F107, N-(5-{[(1R,2R)-1,3-dihydroxy-1-phenylpropan-2-yl]carbamoyl}-2-fluorophenyl)imidazo[1,2-a]pyridine-3-carboxamide] | 0.265 µM
Cc1ccn2c(C(=O)Nc3cc(C(=O)N[C@H]([C@@H](O)c4ccccc4)C(C)(C)O)ccc3F)cnc2c1 [F108, N-(5-{[(1S,2R)-1,3-dihydroxy-3-methyl-1-phenylbutan-2-yl]carbamoyl}-2-fluorophenyl)-7-methylimidazo[1,2-a]pyridine-3-carboxamide] | 0.255 µM
C[C@@H]1CC[C@H](O)[C@H](C)N1CCNC(=O)c1ccc(F)c(NC(=O)c2cnc3cc(-c4ccnn4C)ccn23)c1 [F109, N-[2-fluoro-5-({2-[(2S,3S,6R)-3-hydroxy-2,6-dimethylpiperidin-1-yl]ethyl}carbamoyl)phenyl]-7-(1-methyl-1H-pyrazol-5-yl)imidazo[1,2-a]pyridine-3-carboxamide] | 0.295 µM

— patent publication US20140206682A1, “COMPOUNDS AND COMPOSITIONS AS PDGFR KINASE INHIBITORS” (NOVARTIS PHARMACEUTICALS UK LIMITED, priority 2011, published 2014)
